{
  "source": "patent EP0371837A2",
  "about": "“Process for the synthesis of esters of dithiocarbamic acids by substitution of hydroxylated positions of mono- or polyhydroxylated molecules, products of this process and their uses” (PASTEUR MERIEUX SERUMS ET VACCINS, priority 1988, dated 1990)",
  "key": {"[1]": {"test": "Activity of lithium dithiocarbamates (method not described)", "details": "statement in words, no test described; same applications as the esters (immunomodulator, antiviral)"}, "[2]": {"test": "Toxicity of lithium dithiocarbamates (method not described)", "details": "statement in words, no test described"}},
  "data": [
    {"smiles": "CCN(CC)C(=S)S", "note": "[diéthyldithiocarbamate de lithium, N,N diéthyl dithiocarbamate de lithium]", "values": [
      {"measurement": "activité", "setting": "[1]", "value": "très actifs"},
      {"measurement": "toxicité", "setting": "[2]", "value": "peu toxiques"}
    ]}
  ]
}
